Results on four molecules are retold here after paper PMC3674182 (European journal of medicinal chemistry, 2013).

The test system of test [1] is methicillin-resistant S. aureus (MRSA, ATCC 33591). Briefly: in vitro antibacterial activity. It counts as cell-based. Conditions: Staphylococcus aureus, ATCC33591|MRSA, read-out: MIC, MRS.
The subject of test [2] is Leishmania donovani axenic amastigotes. As to the kind of experiment: in vitro antileishmanial activity, axenic amastigotes. It counts as cell-based. Conditions: 72 h, read-out: L. donovani IC50, Amastigotes.
In test [3] the test system is intracellular amastigote form of Leishmania. The conditions noted are these: cited from earlier work.

In brackets after ≈: the same amount, converted by molar mass.

As usually defined, the MIC is the lowest concentration that inhibits growth of the organism. As for `Oc1ccc(C(c2c[nH]c3ccc(I)cc23)c2c[nH]c3ccc(I)cc23)cc1` [8a, 5,5′-Diiodo-3,3′-(4-hydroxyphenyl-methanediyl)-bisindole], the MIC in test [1] was in the range of 2 to 4.3 µM (≈ 1.18 to 2.54 µg/mL).
The IC50 is the point on the concentration scale where inhibition reaches its midpoint. For `N=C(N)c1ccc(OCCCCCOc2ccc(C(=N)N)cc2)cc1` [Pentamidine], in test [2], the IC50 came out at 2900 nM.
Consider N-demethylconodurine, for which, in test [3], the “activity against the intracellular amastigote form of Leishmania” value is “strong activity”.
As to conodurine, the “activity against the intracellular amastigote form of Leishmania” value in test [3] is on record as “strong activity”.
